# In patent US20130315920A1, “Cross Protective Epitopes of Aspergillus Fumigatus and Candida Albicans” (Cell Medica Limited, priority 2010, published 2013):
# Assays:
# [1] = test system: PBMC; assay: In vitro expansion of Crf1 p41-specific T-cell lines from PBMC; format: cell-based, human
# Description: Cross-reactive Crf1 p41-specific T-cells show a diverse T-cell receptor (TCR) Vβ repertoire, multiple MHC class II restriction and high proliferative capacity. (a) The TCR Vβ repertoire of p41-specific CD4^+ T-cell clones is divers in different donors. TCR chains were determined by flowcytometry, PCR and/or nucleotide sequence analysis. *TCRs differ on the level of nucleotide sequence. Nomenclature is according to Wei et al^53. (b) The Crf1 p41 epitope can be presented by HLA-DRB1*03, 04 and 13 and allows cross-recognition between HLA-DRB1*03 and 13. The HLA restriction of Crf1 p41-specific T-cell clones from 5 different donors was determined by stimulation with peptide-pulsed unmatched or partially matched LCL. IFN-γ values are given after subtraction of the negative control. (c) Crf1 p41-specific T-cells are not terminally differentiated and can be rapidly expanded in vitro. […] T-cells were restimulated with autologous peptide-pulsed monocytes on day 7 and culture medium was supplemented with IL-2, IL-7 and IL-15 (representative experiments, n≧3).
# For T-cell expansion, 1×10^7 PBMC were stimulated with 5 μg/ml peptide in the presence of 5 U/ml IL-2. On d7, T-cells were restimulated with autologous peptide-pulsed monocytes at a R:S ratio of 5:1 and 10 ng/ml IL-7 and IL-15 (R&D systems) were supplemented every other day until d14.
# The TCR Vβ repertoire was analyzed flowcytometrically (IOTest Beta Mark Kit, Beckman Coulter), by PCR^43 and sequence analysis^44. A PE-conjugated Crf1 p41-specific HLA-DRB1*0401 MHC class II tetramer was used according to the manufacturers' instructions (Beckman Coulter).
# [2] = test system: HLA-DRB1*04; assay: HLA restriction with peptide-pulsed partially matched LCL (IFN-γ ELISA); format: cell-based, human; details: 10^−3 to 1 ug/ml peptide
# Description: (§1) To evaluate the utility of the Crf1 p41 epitope for potential clinical application, we defined the HLA restriction of Crf1 p41-specific CD4^+ T clones from different donors by stimulation with peptide-pulsed partially matched LCLs. […] As presentation of the Crf1 p41 peptide could also be mediated by other MHC class II alleles, we verified the HLA restriction by stimulation of PBMC from additional donors.
# (§2) HLA restriction was analyzed with partially matched allogeneic EBV-lymphoblastoid cell lines (LCL) (provided by Patricia Comoli and Inge Jedema) pulsed with 10^−3 to 1 ug/ml peptide using IFN-γ ELISA.
# [3] = test system: HLA-DRB1*03; assay: as above; format: cell-based, human; details: 10^−3 to 1 ug/ml peptide
# Description: as §1, §2
# [4] = test system: HLA-DRB1*13; assay: as above; format: cell-based, human; details: for Presentation / binding by HLA-DRB1*13: 10^−3 to 1 ug/ml peptide
# Description: as §1, §2
# [5] = test system: inactivated A. fumigatus; assay: Peptide-specific T-cell clones stimulated with DC incubated with inactivated A. fumigatus (resting conidia, germinating conidia, hyphae); format: cell-based, Aspergillus fumigatus
# Excerpt: Response of Crf1 peptide-specific T-cell clones to stimulation with native A. fumigatus antigen. (a) T-cell clones from different donors specific for p1, p22, p27, p41 and p59 that responded to stimulation with Crf1 mRNA-transfected DC were stimulated with A. fumigatus cell extract or (b) inactivated germinating A. fumigatus conidia. IFN-γ values are given after subtraction of the negative control. Shown is 1 clone per antigen and donor (representative experiments, n≧3). (c) Crf1 p41-specific T-cell clones respond to stimulation with DC incubated overnight with germinating A. fumigatus conidia or hyphae but not to resting conidia. T cell clones were stimulated with A. fumigatus inactivated 0 h (resting conidia), 6 h (germinating conidia) or 12 h (hyphae) after incubation in growth medium.
# (§3) T-cell cloning was performed as described in below. T-cell clones were stimulated either with mature peptide-pulsed (2.5 μg/ml) or Crf1 mRNA-transfected DC, immature DC incubated for 24 h with A. fumigatus cell extract (20 μg/ml) in the presence of cytokine maturation cocktail or immature DC incubated for 24 h with inactivated A. fumigatus or C. albicans fungus (multiplicity of infection 3) in a R:S ratio of 5:1.
# Fungal extracts were generated as described^48 and protein content was measured by Bradford protein assay (Perbio Science) according to the manufacturers' instructions. […]
# [6] = test system: DC transfected with Crf1 mRNA; assay: Peptide-specific T-cell clones stimulated with Crf1 mRNA-transfected DC (IFN-γ); format: cell-based, human
# Description: as §3
# For T-cell cloning 6×10^7 PBMC were stimulated overnight with 5 μg/ml peptide and 1 μg/ml CD40 antibody (HB14, Miltenyi Biotec). Cells were labelled with anti-CD154^+ microbeads and isolated by magnetic cell separation according to the manufacturers' instructions (Miltenyi Biotec). Selected cells were cultured with γ-irradiated autologous PBMC (ratio 1:50) and cytokines were supplemented as described above. On d14, T-cell clones were generated by limiting dilution in 96-well plates and expanded using the rapid expansion protocol previously described^50.
# A. fumigatus Crf1 cDNA was cloned into the pGEM4Z vector (provided by Kris Thielemans) and in vitro transcribed using mMESSAGE mMACHINE T Ultra Kit (Ambion) according to the manufacturers' instructions. Crf1 was fused to the N-terminal domain of the invariant chain to enhance antigen presentation by MHC class II^51,52. Maturated DC were electroporated with 15 μg mRNA at 300V and 150 μF using the EQUIBIO EasyjecT Plus® apparatus (EQUIBIO) in serum-free medium (OptiMEM, Gibco)^41.
# [7] = test system: C. albicans; assay: Peptide-specific T-cell clones stimulated with inactivated C. albicans yeast; format: cell-based, Candida albicans
# Excerpt: A. fumigatus Crf1 p41-specific T-cell clones are cross-reactive to C. albicans and can be activated by different clinical isolates of both fungi. (a) All A. fumigatus Crf1 p41-specific T-cell clones from different donors respond to stimulation with inactivated C. albicans yeast. IFN-γ values are given after subtraction of the negative control. Shown is 1 clone per antigen and donor (representative experiments, n≧3). (b) A. fumigatus Crf1 p41-specific T-cell clones respond to different inactivated clinical isolates of germinating A. fumigatus conidia and C. albicans yeast.
# as §3
# Fungal extracts were generated as described^48 and protein content was measured by Bradford protein assay (Perbio Science) according to the manufacturers' instructions. For inactivated fungus Aspergillus conidia were inoculated in growth medium^49 and cultured for 0, 4, 8 or 12 h. Candida species were cultured for 24 h. Fungi were inactivated with 70% ethanol. Ethanol-inactivated fungi and extracts were validated for sterility by subculturing on Sabouraud dextrose agar.
# [8] = test system: PBMC from additional donors; assay: Verification of HLA restriction by stimulation of PBMC from additional donors; format: cell-based, human; details: data not shown
# Excerpt: as §1
sequence,measurement,setting,value
"HTYTIDWTKDAVTWS (Peptide found in the Crf1 protein of Aspergillus fumigatus) [p41, Crf1 aa 161-175]",Frequency of antigen-specific cells by HLA-DRB1*04 restricted tetramer (median),[1]; after 14 days expansion,50.6%
same,Frequency of antigen-specific cells by HLA-DRB1*04 restricted tetramer (range),[1]; after 14 days expansion,42-63%
same,Cell number after expansion (median),[1]; from 10^7 PBMC within 14 days,3.5×10^7 cells
same,Cell number after expansion (range),[1]; from 10^7 PBMC within 14 days,3−4.9×10^7 cells
same,Cytokine production and proliferation of expanded T-cell lines,[1]; upon antigen stimulation,produced high amounts of TH1 cytokines and proliferated upon antigen stimulation
same,Presentation / binding by HLA-DRB1*04,[2],"presentation of the Crf1 p41 is mediated by HLA-DRB1*03, 04 and 13"
same,Presentation / binding by HLA-DRB1*04,[2]; listed as HTYTIDWTKDAVTWS,"has been shown to bind to HLA-DRB1*03, HLA-DRB1*13 and HLA-DRB1*04"
same,Presentation / binding by HLA-DRB1*03,[3],"presentation of the Crf1 p41 is mediated by HLA-DRB1*03, 04 and 13"
same,Presentation / binding by HLA-DRB1*03,[3]; listed as HTYTIDWTKDAVTWS,"has been shown to bind to HLA-DRB1*03, HLA-DRB1*13 and HLA-DRB1*04"
same,Cross-recognition between HLA-DRB1*03 and 13,[4],in some instances DRB1*03-restricted TCRs might be able to recognize p41 peptide presented by DRB1*13 and vice versa
same,Presentation / binding by HLA-DRB1*13,[4],"presentation of the Crf1 p41 is mediated by HLA-DRB1*03, 04 and 13"
same,Presentation / binding by HLA-DRB1*13,[4]; listed as HTYTIDWTKDAVTWS,"has been shown to bind to HLA-DRB1*03, HLA-DRB1*13 and HLA-DRB1*04"
same,Activation of peptide-specific T-cell clones by resting conidia,[5]; A. fumigatus inactivated 0 h (resting conidia),resting conidia were not able to activate peptide-specific T-cell clones
same,Activation of peptide-specific T-cell clones by germinating conidia and hyphae,[5]; A. fumigatus inactivated 6 h (germinating conidia) or 12 h (hyphae),germinating conidia induced similar T-cell responses as outgrown hyphae
same,Response of peptide-specific CD4+ T-cell clones to endogenously processed antigen,[6]; all donors,All generated p41-specific CD4^+ T-cell clones were activated readily
same,Number of T-cell clones reacting to Crf1 mRNA-transfected DC/number of peptide-specific T-cell clones,[6]; donor 1,11/11
same,Number of T-cell clones reacting to Crf1 mRNA-transfected DC/number of peptide-specific T-cell clones,[6]; donor 2,16/16
same,Number of T-cell clones reacting to Crf1 mRNA-transfected DC/number of peptide-specific T-cell clones,[6]; donor 4,2/2
same,Number of T-cell clones reacting to Crf1 mRNA-transfected DC/number of peptide-specific T-cell clones,[6]; donor 7,4/4
same,Number of T-cell clones reacting to Crf1 mRNA-transfected DC/number of peptide-specific T-cell clones,[6]; donor 10,3/3
same,Cross-reactivity with different clinical isolates of A. fumigatus and C. albicans,[7]; clinical isolates,could further confirm this cross-reactivity of the Crf1 p41 epitope
same,Cross-reactivity of peptide-specific T-cell clones to C. albicans,"[7]; inactivated C. albicans yeast, established strain",All p41-specific T-cell clones of all donors recognized and responded to C. albicans
same,Reaction of PBMC to the epitope,"[8]; 5 donors lacking HLA-DRB1*03, 04 and 13","all 5 donors lacking HLA-DRB1*03, 04 and 13 MHC class II alleles did not"
same,Reaction of PBMC to the epitope,"[8]; HLA-DRB1*03, 04 and 13 donors","All HLA-DRB1*03, 04 and 13 donors reacted to the Crf1 p41 epitope"
